Experimental data as given in ChEMBL document CHEMBL1201862, “PubChem BioAssay data set” (2004).
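Protocol summary: plate cells (96-well), add compound at 5 concentrations, incubate 48 h, interpolate endpoints linearly. Abbreviation: GI50, concentration required for 50% inhibition of growth.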 Calls of active or inactive are those of the source. No stated cut-off is given here; in the data, active = GI50 up to about 1.1 µM and inactive = higher.

How the values were obtained:
Test in all cases: growth of human tumour cells (NCI), 48 h
K562 = tested on: K562
RXF 393 = tested on: RXF 393
OVCAR-4 = tested on: OVCAR-4
Malme-3M = tested on: Malme-3M
A549 = tested on: A549
KM12 = tested on: KM12
RPMI-8226 = tested on: RPMI-8226
SNB-75 = tested on: SNB-75
UO-31 = tested on: UO-31
HOP-62 = tested on: HOP-62
SW-620 = tested on: SW-620
CCRF-CEM = tested on: CCRF-CEM
HCT-116 = tested on: HCT-116
SK-MEL-5 = tested on: SK-MEL-5
HT-29 = tested on: HT-29
NCI-H226 = tested on: NCI-H226
M14 = tested on: M14
U-251 = tested on: U-251
NCI/ADR-RES = tested on: NCI/ADR-RES

C/C(CCn1[nH]c(=O)ccc1=O)=N\N=C(N)N
GI50 (K562): > 100 µM (inactive) | GI50 (RXF 393): > 100 µM (inactive) | GI50 (OVCAR-4): > 100 µM (inactive) | GI50 (Malme-3M): > 100 µM (inactive) | GI50 (A549): > 100 µM (inactive) | GI50 (KM12): > 100 µM (inactive) | GI50 (RPMI-8226): > 100 µM (inactive) | GI50 (SNB-75): > 100 µM (inactive) | GI50 (UO-31): > 100 µM (inactive) | GI50 (HOP-62): > 100 µM (inactive) | GI50 (SW-620): > 100 µM (inactive) | GI50 (CCRF-CEM): > 100 µM (inactive) | GI50 (HCT-116): > 100 µM (inactive) | GI50 (SK-MEL-5): > 100 µM (inactive) | GI50 (HT-29): > 100 µM (inactive) | GI50 (NCI-H226): > 100 µM (inactive) | GI50 (M14): > 100 µM (inactive)

NC1=C(NC(=O)Cc2ccccc2F)C(=O)c2ccccc2C1=O
GI50 (K562): > 100 µM (inactive) | GI50 (RXF 393): 34.4 µM (inactive) | GI50 (OVCAR-4): 42 µM (inactive) | GI50 (Malme-3M): 13.6 µM (inactive) | GI50 (A549): 59.3 µM (inactive) | GI50 (U-251): 36.5 µM (inactive) | GI50 (KM12): > 100 µM (inactive) | GI50 (RPMI-8226): > 100 µM (inactive) | GI50 (SNB-75): 18.8 µM (inactive) | GI50 (UO-31): 92.7 µM (inactive) | GI50 (HOP-62): 25.5 µM (inactive) | GI50 (SW-620): 97.3 µM (inactive) | GI50 (CCRF-CEM): > 100 µM (inactive) | GI50 (HCT-116): 44 µM (inactive) | GI50 (HT-29): 46.7 µM (inactive) | GI50 (NCI-H226): > 100 µM (inactive) | GI50 (M14): > 100 µM (inactive)

CC1=C[C@H](O)[C@@]2(C)[C@@H]([C@@H]1C)[C@H]1CC[C@@H]3[C@@]4(C)CC[C@H](O)C(C)(C)[C@@H]4CC[C@@]3(C)[C@]1(C)C[C@@H]2O
GI50 (K562): 19.6 µM (inactive) | GI50 (RXF 393): 17.6 µM (inactive) | GI50 (OVCAR-4): 17.9 µM (inactive) | GI50 (Malme-3M): 20.6 µM (inactive) | GI50 (A549): 12.8 µM (inactive) | GI50 (U-251): 20 µM (inactive) | GI50 (KM12): 22.1 µM (inactive) | GI50 (UO-31): 18.6 µM (inactive) | GI50 (HOP-62): 17.3 µM (inactive) | GI50 (SW-620): 22.1 µM (inactive) | GI50 (CCRF-CEM): 16.9 µM (inactive) | GI50 (HCT-116): 12.4 µM (inactive) | GI50 (SK-MEL-5): 16.5 µM (inactive) | GI50 (HT-29): 13.8 µM (inactive) | GI50 (NCI-H226): 23.1 µM (inactive) | GI50 (NCI/ADR-RES): 19.8 µM (inactive) | GI50 (M14): 17.1 µM (inactive)

O=C(O/N=C1/CCCC/C1=C\c1ccccc1)c1ccc(Cl)c(Cl)c1
GI50 (K562): 15.8 µM (inactive) | GI50 (RXF 393): 27.7 µM (inactive) | GI50 (OVCAR-4): 20.7 µM (inactive) | GI50 (Malme-3M): 0.443 µM (active) | GI50 (A549): 17.5 µM (inactive) | GI50 (U-251): 17.3 µM (inactive) | GI50 (KM12): 46.7 µM (inactive) | GI50 (RPMI-8226): 36.2 µM (inactive) | GI50 (SNB-75): 27.5 µM (inactive) | GI50 (UO-31): 17.9 µM (inactive) | GI50 (HOP-62): 52.5 µM (inactive) | GI50 (SW-620): 18.7 µM (inactive) | GI50 (CCRF-CEM): 21.8 µM (inactive) | GI50 (HCT-116): 13.6 µM (inactive) | GI50 (SK-MEL-5): 38.5 µM (inactive) | GI50 (HT-29): 22.4 µM (inactive) | GI50 (NCI-H226): 45.9 µM (inactive) | GI50 (M14): > 100 µM (inactive)

OCC(O)CNc1ccnc2cc(Cl)ccc12 (centres undefined)
GI50 (K562): > 100 µM (inactive) | GI50 (RXF 393): > 100 µM (inactive) | GI50 (OVCAR-4): > 100 µM (inactive) | GI50 (Malme-3M): > 100 µM (inactive) | GI50 (A549): > 100 µM (inactive) | GI50 (U-251): > 100 µM (inactive) | GI50 (KM12): > 100 µM (inactive) | GI50 (RPMI-8226): > 100 µM (inactive) | GI50 (SNB-75): > 100 µM (inactive) | GI50 (UO-31): > 100 µM (inactive) | GI50 (HOP-62): > 100 µM (inactive) | GI50 (SW-620): > 100 µM (inactive) | GI50 (CCRF-CEM): > 100 µM (inactive) | GI50 (HCT-116): > 100 µM (inactive) | GI50 (SK-MEL-5): > 100 µM (inactive) | GI50 (HT-29): > 100 µM (inactive) | GI50 (NCI-H226): > 100 µM (inactive) | GI50 (M14): > 100 µM (inactive)

COc1cccc(/C=C2\N=C(Cl)OC2=O)c1O
GI50 (K562): > 100 µM (inactive) | GI50 (RXF 393): > 100 µM (inactive) | GI50 (OVCAR-4): > 100 µM (inactive) | GI50 (Malme-3M): > 100 µM (inactive) | GI50 (A549): > 100 µM (inactive) | GI50 (U-251): > 85.9 µM (inactive) | GI50 (KM12): > 100 µM (inactive) | GI50 (RPMI-8226): > 73.5 µM (inactive) | GI50 (SNB-75): 30.5 µM (inactive) | GI50 (UO-31): > 100 µM (inactive) | GI50 (HOP-62): > 100 µM (inactive) | GI50 (SW-620): > 66.4 µM (inactive) | GI50 (CCRF-CEM): > 55.3 µM (inactive) | GI50 (HCT-116): > 100 µM (inactive) | GI50 (SK-MEL-5): > 100 µM (inactive) | GI50 (HT-29): > 100 µM (inactive) | GI50 (NCI-H226): > 100 µM (inactive) | GI50 (M14): > 100 µM (inactive)

O=C(O/N=C1/CCC/C1=C\c1ccccc1)c1ccc(Cl)c(Cl)c1
GI50 (K562): > 100 µM (inactive) | GI50 (RXF 393): > 100 µM (inactive) | GI50 (OVCAR-4): 35 µM (inactive) | GI50 (Malme-3M): > 100 µM (inactive) | GI50 (A549): > 100 µM (inactive) | GI50 (U-251): > 100 µM (inactive) | GI50 (KM12): > 100 µM (inactive) | GI50 (RPMI-8226): > 100 µM (inactive) | GI50 (SNB-75): > 100 µM (inactive) | GI50 (UO-31): > 100 µM (inactive) | GI50 (HOP-62): > 100 µM (inactive) | GI50 (SW-620): > 100 µM (inactive) | GI50 (CCRF-CEM): > 100 µM (inactive) | GI50 (HCT-116): > 100 µM (inactive) | GI50 (SK-MEL-5): > 100 µM (inactive) | GI50 (HT-29): > 100 µM (inactive) | GI50 (NCI-H226): > 100 µM (inactive) | GI50 (M14): > 100 µM (inactive)

COc1ccccc1NC(=O)C1=C(C)NC(C)=C(C(=O)Nc2ccccc2OC)C1c1ccccc1[N+](=O)[O-]
GI50 (K562): 20.6 µM (inactive) | GI50 (RXF 393): > 100 µM (inactive) | GI50 (OVCAR-4): 18.9 µM (inactive) | GI50 (Malme-3M): 13.9 µM (inactive) | GI50 (A549): > 100 µM (inactive) | GI50 (U-251): 14.5 µM (inactive) | GI50 (KM12): 16.8 µM (inactive) | GI50 (RPMI-8226): 19.1 µM (inactive) | GI50 (SNB-75): 42.1 µM (inactive) | GI50 (UO-31): 19.4 µM (inactive) | GI50 (HOP-62): 33.2 µM (inactive) | GI50 (CCRF-CEM): 18.9 µM (inactive) | GI50 (HCT-116): > 100 µM (inactive) | GI50 (SK-MEL-5): 24.8 µM (inactive) | GI50 (HT-29): 18.7 µM (inactive) | GI50 (NCI-H226): 15.2 µM (inactive) | GI50 (M14): 16.1 µM (inactive)

Cc1cc(Cl)ccc1NC(=O)CC/C(CC(=O)C(C)C)=N\NC(=O)C[n+]1ccccc1
GI50 (K562): > 100 µM (inactive) | GI50 (RXF 393): > 100 µM (inactive) | GI50 (OVCAR-4): > 100 µM (inactive) | GI50 (Malme-3M): > 100 µM (inactive) | GI50 (A549): > 100 µM (inactive) | GI50 (U-251): > 100 µM (inactive) | GI50 (KM12): > 100 µM (inactive) | GI50 (RPMI-8226): > 100 µM (inactive) | GI50 (SNB-75): > 100 µM (inactive) | GI50 (UO-31): > 100 µM (inactive) | GI50 (HOP-62): > 100 µM (inactive) | GI50 (SW-620): > 100 µM (inactive) | GI50 (CCRF-CEM): > 100 µM (inactive) | GI50 (HCT-116): > 100 µM (inactive) | GI50 (SK-MEL-5): > 100 µM (inactive) | GI50 (HT-29): > 100 µM (inactive) | GI50 (NCI-H226): > 100 µM (inactive) | GI50 (M14): > 100 µM (inactive)

CCOC(=O)C(/N=N\c1ccc(S(N)(=O)=O)cc1)C(C)=O (centres undefined)
GI50 (K562): > 100 µM (inactive) | GI50 (RXF 393): > 100 µM (inactive) | GI50 (OVCAR-4): > 100 µM (inactive) | GI50 (Malme-3M): > 100 µM (inactive) | GI50 (A549): > 100 µM (inactive) | GI50 (U-251): > 100 µM (inactive) | GI50 (KM12): > 100 µM (inactive) | GI50 (RPMI-8226): > 100 µM (inactive) | GI50 (SNB-75): > 100 µM (inactive) | GI50 (UO-31): > 100 µM (inactive) | GI50 (HOP-62): > 100 µM (inactive) | GI50 (SW-620): > 100 µM (inactive) | GI50 (CCRF-CEM): > 100 µM (inactive) | GI50 (HCT-116): > 100 µM (inactive) | GI50 (SK-MEL-5): > 100 µM (inactive) | GI50 (HT-29): > 100 µM (inactive) | GI50 (NCI-H226): > 100 µM (inactive) | GI50 (M14): > 100 µM (inactive)

CC(=O)OC(C)(C)/C=C/C(=O)[C@](C)(O)[C@H]1[C@H](O)C[C@@]2(C)[C@@H]3CC=C4[C@@H](C[C@H](O)C(=O)C4(C)C)[C@]3(CO)C(=O)C[C@]12C [CUCURBITACIN A]
GI50 (K562): 0.445 µM (active) | GI50 (RXF 393): 0.208 µM (active) | GI50 (OVCAR-4): 0.348 µM (active) | GI50 (Malme-3M): 0.344 µM (active) | GI50 (A549): 0.391 µM (active) | GI50 (U-251): 0.233 µM (active) | GI50 (KM12): 1.1 µM (active) | GI50 (RPMI-8226): 0.0942 µM (active) | GI50 (SNB-75): 0.131 µM (active) | GI50 (UO-31): 0.317 µM (active) | GI50 (HOP-62): 0.26 µM (active) | GI50 (SW-620): 0.367 µM (active) | GI50 (CCRF-CEM): 0.286 µM (active) | GI50 (HCT-116): 0.437 µM (active) | GI50 (SK-MEL-5): 0.316 µM (active) | GI50 (HT-29): 0.308 µM (active) | GI50 (NCI-H226): 0.0762 µM (active) | GI50 (M14): 0.39 µM (active)
